Tests used:
NRF2 = NRF2 western blot in Panc-1 cells; format: cell-based, Human; conditions: edited Panc-1 populations vs unedited, GAPDH loading control
Protocol: Panc-1 cell pellets were collected using a standard RIPA lysis buffer containing protease inhibitor cocktail. Total protein concentration of collected cells was then determined using BCA Protein Assay kit (Pierce, Rockford, IL, USA). The samples were boiled at 95° C. for 10 minutes and then underwent SDS-PAGE on a 10% Mini-PROTEAN TGX Stain-free Protein Gel (BioRad, Cat. 4568033) for 90 min at 100 V. The gel was then transferred to a nitrocellulose membrane using Trans-Blot Turbo Transfer Systems (BioRad, Hercules, CA, USA) with Trans-Blot Turbo RTA Mini 0.2 μm Nitrocellulose Transfer Kit (BioRad Cat. 1704158), mixed molecular weight program, 10 minutes. The blot was placed in 5% milk and blocked at room temperature on shaker for 2 hours. Incubation in primary NRF2 antibody was done overnight at 4° C. on shaker (1:1,000, Abcam ab62352). Membrane was then incubated at room temperature on shaker for 1 hour in NRF2 secondary (1:10,000, Abcam ab205718). The SuperSignal West Dura Extended Duration ECL (Pierce) kit was used on the LI-COR Odyssey FC to visualize bands. […]

A549 cells = assay: Cell viability (MTS) of gRNA-targeted A549 cells; format: cell-based, Human; conditions: without any cisplatin exposure (0 uM), vs wildtype untransfected cells
Excerpt: FIG. 4A-C: Lung adenocarcinoma cells targeting Exon 3, 4, 5 of NRF2 and assessment of chemotherapy response. (FIG. 4A) A549 cells were transfected with each respective gRNA. Genomic DNA from each cell population was isolated and amplified across exon 3, 4 or 5 of the NRF2 gene. Amplicons were sanger sequenced and analyzed for indels at the CRISPR target site. The graph presents the total editing efficiency listed as Indel and frameshifting indel % listed as FS. (FIG. 4B) Raw sequence files from cells targeted with gRNA 76 or gRNA 83 were aligned using the software program, DECODR, to display the indel pattern (listed as INDEL and %). […] Viability was measured via bioreduction of MTS to a formazan product. […] The average relative viability of cells in response to cisplatin is graphed above.
To assess CRISPR activity across various exons of NRF2, several gRNAs were designed along exon 3, 4 and 5 of the NRF2 gene in the A549 cell line. The A549 cells were transfected with each individually designed gRNA and cells were collected 72 hours after transfection. Genomic DNA was isolated, PCR amplified and Sanger sequenced. Editing activity was quantified using DECODR to deconvolute the indels present in at the cut site of each gRNA. […]

In the case of “sg83: gRNA targeting exon 4 of NRF2; GTAGCCCCTGTTGATTTAGA CGG (guide GTAGCCCCTGTTGATTTAGACGG; listed as DNA, chemistry not given here)”, the NRF2 protein knock down (NRF2) is reported as “significant knockdown of protein” and the viability (A549 cells) is reported as “much lower viability”.

Reference: patent publication US20250319206A1, “CRISPR/CAS GENE EDITING OF NEH4 AND/OR NEH5 DOMAINS IN NRF2” (Christina Care Gene Editing Institute, Inc., priority 2024, published 2025)
